# Source: patent US20120077753A1, “JNK INHIBITORS FOR USE IN TREATING SPINAL MUSCULAR ATROPHY” (priority 2009, published 2012)
# Columns and labels:
# [1] = target: JNK3 (Homo sapiens, UniProt P53779); details: cited from earlier work
# [2] = target: JNK-1, -2, and -3; details: ATP-competitive reversible inhibitor; cited from earlier work
# [3] = tested on: Primary neurons; test: Degeneration of primary neurons transfected with siRNA-Smn or scrambled siRNA (tubulin staining, confocal microscopy); format: cell-based, mice
# Procedure: (§1) Primary neurons transfected with scrambled siRNA (Control) and SMN specific siRNA (siRNA-Smn) were treated with DMSO or SP600125 after 36 h (post-transfection). Neurons were incubated for additional 60 h, fixed and stained with antibodies to Tubulin and phospho-JNK. Stained neurons were examined by confocal microscopy. Primary neurons transfected with scrambled siRNA (Control) and SMN specific siRNA (siRNA-Smn) were treated with DMSO or SP600125 after 36 h (post-transfection). Neurons were incubated for additional 60 h, fixed and stained with antibodies to Tubulin and phospho-c-Jun. Stained neurons were examined by confocal microscopy. To determine whether JNK activity is required for neurodegeneration, the effect of JNK inhibitor (SP600125) was examine on degeneration of neurons caused by SMN-deficiency. […] The knockdown of SMN neurons treated with solvent (DMSO) results in degeneration of neurons as expected. […] To determine whether the neuroprotection is a result of JNK inhibition achieved by treatment of SP600125, the phosphorylation of c-Jun was examined. […] To determine whether activation of JNK is normal in neurons treated with siRNA and JNK inhibitor, phospho-JNK was examined because JNK is activated by phosphorylation.
# [4] = tested on: CD4+ CD8+ thymocytes; details: animal studies; cited from earlier work
# [5] = tested on: phosphorylation of c-Jun; details: in cells; cited from earlier work
# [6] = tested on: tumor necrosis factor-α; details: animal studies; cited from earlier work
# [7] = tested on: phospho-JNK; test: Phospho-JNK staining in primary neurons lacking SMN; format: cell-based, mice; details: neurons treated with siRNA+SP600125
# Procedure: as §1, with “phospho-JNK.” for “phospho-JNK. Stained neurons were examined by confocal microscopy. Primary neurons transfected with scrambled siRNA (Control) and SMN specific siRNA (siRNA-Smn) were treated with DMSO or SP600125 after 36 h (post-transfection). Neurons were incubated for additional 60 h, fixed and stained with antibodies to Tubulin and phospho-c-Jun.”
# [8] = tested on: a range of kinases and enzymes; details: cited from earlier work
# [9] = tested on: phosphorylation of c-Jun; test: Phospho-c-Jun staining in primary neurons lacking SMN; format: cell-based, mice; details: neurons lacking SMN (siRNA-Smn), vs untreated with JNK inhibitor
# Procedure: as §1, with “Primary” for “Primary neurons transfected with scrambled siRNA (Control) and SMN specific siRNA (siRNA-Smn) were treated with DMSO or SP600125 after 36 h (post-transfection). Neurons were incubated for additional 60 h, fixed and stained with antibodies to Tubulin and phospho-JNK. Stained neurons were examined by confocal microscopy. Primary”
# JNK3, sequence (P53779 whole entry, species assumed): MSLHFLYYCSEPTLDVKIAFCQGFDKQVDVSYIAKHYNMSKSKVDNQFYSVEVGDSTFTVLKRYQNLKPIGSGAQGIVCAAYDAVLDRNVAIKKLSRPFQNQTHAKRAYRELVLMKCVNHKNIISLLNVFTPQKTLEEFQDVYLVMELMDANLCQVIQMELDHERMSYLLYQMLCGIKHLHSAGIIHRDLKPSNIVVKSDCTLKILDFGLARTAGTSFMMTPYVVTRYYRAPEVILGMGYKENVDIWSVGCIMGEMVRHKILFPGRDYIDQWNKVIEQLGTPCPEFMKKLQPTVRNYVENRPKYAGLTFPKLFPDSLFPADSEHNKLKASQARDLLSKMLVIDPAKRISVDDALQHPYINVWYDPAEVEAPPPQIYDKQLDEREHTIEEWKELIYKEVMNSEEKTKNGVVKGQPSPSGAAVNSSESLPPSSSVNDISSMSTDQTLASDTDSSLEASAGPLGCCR
compound,measurement,setting,value
"O=C1c2c(CCCCCNc3ccccc3)cccc2-c2n[nH]c3cccc1c23 [7-(5-7V-Phenylaminopentyl)-2H-anthra[1,9-cd]pyrazol-6-one]",JNK3 selectivity,[1],selective inhibitors of JNK3
"Cc1ccc(OCCCCCNc2cccc3c2C(=O)c2cccc4[nH]nc-3c24)cc1 [7-(5-(p-Tolyloxy)pentyl)amino-2H-anthra[1,9-cd]pyrazol-6-one]",JNK3 selectivity,[1],selective inhibitors of JNK3
"O=C(NCCCCCCCNc1cccc2c1C(=O)c1cccc3[nH]nc-2c13)c1ccccc1 [7-(7-7V-Benzoylaminoheptyl)amino-2H-anthra[1,9-cd]pyrazol-6-one]",JNK3 selectivity,[1],selective inhibitors of JNK3
"O=C1c2ccccc2-c2n[nH]c3cccc1c23 [SP600125, Anthra[1,9-cd]pyrazol-6(2H)-on]",Ki,[2],190 nM
same,neuron degeneration in control experiments,"[3]; control neurons, SP600125",did not cause neuron degeneration
same,degeneration of neurons caused by SMN-deficiency,"[3]; neurons transfected with siRNA-Smn, inhibitor added 36 h post-transfection, additional 60 h, vs solvent (DMSO)",marked reduction in degeneration
same,anti-CD3-induced apoptosis of CD4+ CD8+ thymocytes,[4],prevented
same,inhibition of the phosphorylation of c-Jun,[5],dose-dependent inhibition
same,bacterial lipopolysaccharide-induced expression of tumor necrosis factor-α,[6],inhibited
same,phospho-JNK (JNK activation),[7],presence of phospho-JNK
same,selectivity vs. a range of kinases and enzymes tested,[8],> 20 fold
same,phosphorylation of c-Jun,[9],marked reduction in the phosphorylation of c-Jun
